Measured values published in patent US11530196B2, “Pyrimidine compound acting on EGFR and ERBB2” (CHINA RESOURCES PHARMACEUTICAL HOLDINGS COMPANY LIMITED, priority 2019, dated 2022).

Key:
[1] = Compound stability test in plasma (mouse); type: in vitro ADME
Description: (§1) In this study, mouse, SD rat, Beagle, cynomolgus monkey and human plasma were used as materials to investigate the stability of the tested compounds in the plasma of the above five species. Propantheline, Enalapril, Bisacodyl and Procaine were used as control compounds.
(§2) The experimental conditions for the test compounds were as follows: • test concentration: 2 μM (DMSO ≤0.5%); • incubation times: 0, 10, 30, 60 and 120 minutes; • frozen plasma (from multiple species) was used in the test system; • incubation conditions: 37° C.
(§3) The mixed frozen plasma was thawed in a 37° C. water bath prior to the experiment. Plasma was centrifuged at 4000 rpm for 5 minutes and cleared if there was a clot. The pH will be adjusted to 7.4±0.1 if required.
(§4) The intermediate solution of 1 mM compound and positive control was prepared by diluting 10 mM stock solution with 90 μL of dimethyl sulfoxide. 100 μM solution was prepared by diluting 20 μL of intermediate solution (1 mM) with 180 μL of 45% methanol/water.
(§5) 2 μL of 100 μM solution was added to 98 μL of blank plasma to achieve a final concentration of 2 μM (in duplicate) of the sample, and the sample was incubated in a 37° C. water bath. At each time point (0, 10, 30, 60 and 120 min), 400 μL of termination solution (200 ng/mL toluenesulfonylurea and 200 ng/mL labetalol, 50% ACN/MeOH) was added to precipitate the proteins and mixed thoroughly. […]

[2] = Compound stability test in plasma (rat); type: in vitro ADME, SD rat
Description: as §1, §2, §3, §4, §5

- In vitro plasma stability (Residual percentage) ([1]; 120 minutes, 2 μM, 37° C.): 45%
- half-life at 2 µM ([1]; pH 7.4, 37° C., read-out: In vitro plasma half-life T1/2): 1.81 h
- In vitro plasma stability (Residual percentage) ([2]; 120 minutes, 2 μM, 37° C.): 87.9%
- half-life at 2 µM ([2]; Sprague-Dawley (SD), pH 7.4, 37° C., read-out: In vitro plasma half-life T1/2): > 4.82 h
Structure (SMILES): C=CC(=O)Nc1cc(Nc2ncc(C(=O)OC(C)C)c(-c3cn(OC)c4ccccc34)n2)c(OC)cc1N(C)CCN(C)C.CS(=O)(=O)O [Compound 1]
